Measured values as given in patent US7208500B2, “Thienopyridine-phenylacetamides and their derivatives useful as new anti-angiogenic agents” (Agouron Pharmaceuticals, Inc., priority 2003, dated 2007).

What was measured:
[1] = molecular target: T1, unphosphorylated VEGF-R2D50 (FLVK), cytosolic domain of human VEGF-R2 (Homo sapiens, UniProt P35968, DEL940-989/E990V); test: VEGF-R2 coupled spectrophotometric assay (FLVK); type: biochemical
T1 construct: VEGF-R2D50 contains residues 806–939 and 990–1171; made in house; host or cells: baculovirus/insect cell system
Procedure, shortened: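 Unphosphorylated VEGF-R2D50 (5–40 nM, baculovirus-expressed) was assayed with 3 mM ATP, 20 mM poly(E4Y1), 60 mM MgCl2 and 2 mM MnCl2 in HEPES pH 7.5. ADP formation was coupled via PK/LDH to NADH oxidation and followed at A340. Ki came from activity at varying compound concentrations fitted by the Morrison equation.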

[2] = molecular target: T2, FGF-R1 intracellular kinase domain (Homo sapiens, UniProt P11362, C488A/C584S/L457V); test: FGF-R spectrophotometric assay; type: biochemical; details: 50 nM test compound; read-out: FGF-P (% inh @ 50 nM)
T2 construct: starting from the endogenous methionine residue 456 to glutamate 766; made in house; host or cells: baculovirus vector expression system
Procedure, shortened: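 Human FGF-R1 kinase domain (Met456–Glu766, L457V/C488A/C584S) expressed in baculovirus. Spectrophotometric kinase assay run as for VEGF-R2 with 50 nM FGF-R, 2 mM ATP and 15 mM poly(E4Y1).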

[3] = test system: human umbilical vein endothelial cells (HUVEC); test: HUVEC + VEGF proliferation assay; type: cell-based; details: VEGF-stimulated proliferation, final VEGF 6 ng/mL, 72 hours, MTT
Method: This assay determines the ability of a test compound to inhibit the growth factor-stimulated proliferation of human umbilical vein endothelial cells (“HUVEC”). HUVEC cells (passage 3–4, Clonetics, Corp.) were thawed into EGM2 culture medium (Clonetics Corp) in T75 flasks. Fresh EGM2 medium was added to the flasks 24 hours later. Four or five days later, cells were exposed to another culture medium (F12K medium supplemented with 10% fetal bovine serum (FBS), […] endothelial cell growth supplement (ECGS), and 0.1 mg/mL heparin). Exponentially-growing HUVEC cells were used in experiments thereafter. Ten to twelve thousand HUVEC cells were plated in 96-well dishes in […] of rich, culture medium (described above). The cells were allowed to attach for 24 hours in this medium. The medium was then removed by aspiration and […] of starvation media (F12K+1% FBS) was added to each well. After 24 hours, […] of test agent dissolved in 1% DMSO in starvation medium or this vehicle alone was added into each treatment well; the final DMSO concentration was 0.1%. One hour later, […] of VEGF (30 ng/mL) in starvation media was added to all wells except those containing untreated controls; the final VEGF concentration was 6 ng/mL. Cellular proliferation was quantified 72 hours later by MTT dye reduction, at which time cells were exposed for 4 hours MTT (Promega Corp.). Dye reduction was stopped by addition of a stop solution (Promega Corp.) and absorbance at 595 nm was determined on a 96-well spectrophotometer plate reader.

T2 sequence (P11362 456-766 L457V/C488A/C584S): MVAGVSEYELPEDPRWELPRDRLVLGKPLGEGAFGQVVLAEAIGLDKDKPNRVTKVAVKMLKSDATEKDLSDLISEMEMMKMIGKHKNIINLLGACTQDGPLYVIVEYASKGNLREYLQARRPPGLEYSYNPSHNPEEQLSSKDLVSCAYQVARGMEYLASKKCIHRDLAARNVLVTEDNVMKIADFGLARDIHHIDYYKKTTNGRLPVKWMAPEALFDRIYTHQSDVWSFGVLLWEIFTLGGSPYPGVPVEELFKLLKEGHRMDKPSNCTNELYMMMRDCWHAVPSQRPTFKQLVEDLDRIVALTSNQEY
T1 sequence (P35968 with tags, fused parts or gaps DEL940-989/E990V limits assumed): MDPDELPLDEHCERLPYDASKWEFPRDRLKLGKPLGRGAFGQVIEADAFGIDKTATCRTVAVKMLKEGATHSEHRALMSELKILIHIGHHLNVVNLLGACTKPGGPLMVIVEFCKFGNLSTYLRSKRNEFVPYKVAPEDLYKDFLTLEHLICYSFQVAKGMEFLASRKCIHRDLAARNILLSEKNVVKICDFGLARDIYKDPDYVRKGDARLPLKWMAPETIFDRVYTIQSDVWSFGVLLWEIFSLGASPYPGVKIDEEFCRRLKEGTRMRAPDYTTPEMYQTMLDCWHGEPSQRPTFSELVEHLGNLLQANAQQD

SMILES: O=C(Cc1ccc(Oc2ccnc3cc(C(=O)N4CCC4)sc23)cc1)Nc1ccc(Cl)cn1 [Example 28, 2-{4-[2-(Azetidine-1-carbonyl)-thieno[3,2-b]pyridin-7-yloxy]-phenyl}-N-(5-chloro-pyridin-2-yl)-acetamide]
- Ki [1]: < 0.001 µM
- inhibition at 0.05 µM [2]: 5 to 10%
- IC50 [3]: < 0.001 µM

SMILES: O=C(Cc1ccc(Oc2ccnc3cc(C(=O)N4CCC4)sc23)cc1)Nc1ccc(F)cn1 [Example 29, 2-{4-[2-(Azetidine-1-carbonyl)-thieno[3,2-b]pyridin-7-yloxy]-phenyl}-N-(5-fluoro-pyridin-2-yl)-acetamide]
- Ki [1]: 0.001 to 0.01 µM
- inhibition at 0.05 µM [2]: 0 to 5%
- IC50 [3]: > 0.01 µM

SMILES: O=C(Cc1ccc(Oc2ccnc3cc(C(=O)N4CCC4)sc23)cc1)Nc1ccc(Br)cn1 [Example 30, 2-{4-[2-(Azetidine-1-carbonyl)-thieno[3,2-b]pyridin-7-yloxy]-phenyl}-N-(5-bromo-pyridin-2-yl)-acetamide]
- Ki [1]: < 0.001 µM
- inhibition at 0.05 µM [2]: 0 to 5%
- IC50 [3]: 0.001 to 0.01 µM

SMILES: O=C(Cc1ccc(Oc2ccnc3cc(C(=O)N4CCC4)sc23)cc1)Nc1cc2ccccc2cn1 [Example 31, 2-{4-[2-(Azetidine-1-carbonyl)-thieno[3,2-b]pyridin-7-yloxy]-phenyl}-N-isoquinolin-3-yl-acetamide]
- Ki [1]: < 0.001 µM
- inhibition at 0.05 µM [2]: 0 to 5%
- IC50 [3]: < 0.001 µM

SMILES: O=C(Cc1ccc(Oc2ccnc3cc(C(=O)N4CCC4)sc23)cc1)Nc1nccc2ccccc12 [Example 32, 2-{4-[2-(Azetidine-1-carbonyl)-thieno[3,2-b]pyridin-7-yloxy]-phenyl}-N-isoquinolin-1-yl-acetamide]
- Ki [1]: 0.001 to 0.01 µM
- inhibition at 0.05 µM [2]: 0 to 5%
- IC50 [3]: > 0.01 µM

SMILES: O=C(Cc1ccc(Oc2ccnc3cc(C(=O)N4CCC4)sc23)cc1)Nc1ccc2ccccc2n1 [Example 33, 2-{4-[2-(Azetidine-1-carbonyl)-thieno[3,2-b]pyridin-7-yloxy]-phenyl}-N-quinolin-2-yl-acetamide]
- Ki [1]: < 0.001 µM
- inhibition at 0.05 µM [2]: 0 to 5%
- IC50 [3]: > 0.01 µM

SMILES: Cc1cc(NC(=O)Cc2ccc(Oc3ccnc4cc(C(=O)N5CCC5)sc34)cc2)no1 [Example 41, 2-{4-[2-(Azetidine-1-carbonyl)-thieno[3,2-b]pyridin-7-yloxy]-phenyl}-N-(5-methyl-isoxazol-3-yl)-acetamide]
- Ki [1]: 0.001 to 0.01 µM
- inhibition at 0.05 µM [2]: 5 to 10%
- IC50 [3]: 0.001 to 0.01 µM

SMILES: Cc1cc(C)nc(NC(=O)Cc2ccc(Oc3ccnc4cc(C(=O)N5CCC5)sc34)cc2Cl)c1 [Example 49, 2-{4-[2-(Azetidine-1-carbonyl)-thieno[3,2-b]pyridin-7-yloxy]-2-chloro-phenyl}-N-(4,6-dimethyl-pyridin-2-yl)-acetamide]
- Ki [1]: < 0.001 µM
- inhibition at 0.05 µM [2]: > 10%
- IC50 [3]: 0.001 to 0.01 µM

SMILES: O=C(Cc1ccc(Oc2ccnc3cc(C(=O)N4CCC4)sc23)cc1Cl)Nc1ccc(Cl)cn1 [Example 50, 2-{4-[2-(Azetidine-1-carbonyl)-thieno[3,2-b]pyridin-7-yloxy]-2-chloro-phenyl}-N-(5-chloro-pyridin-2-yl)-acetamide]
- Ki [1]: 0.001 to 0.01 µM
- inhibition at 0.05 µM [2]: > 10%
- IC50 [3]: > 0.01 µM

SMILES: O=C(Cc1ccc(Oc2ccnc3cc(C(=O)N4CCC4)sc23)cc1Cl)Nc1ccccn1 [Example 51, 2-{4-[2-(Azetidine-1-carbonyl)-thieno[3,2-b]pyridin-7-yloxy]-2-chloro-phenyl}-N-pyridin-2-yl-acetamide]
- Ki [1]: 0.001 to 0.01 µM
- inhibition at 0.05 µM [2]: 0 to 5%
- IC50 [3]: > 0.01 µM

SMILES: Cc1cc(NC(=O)Cc2ccc(Oc3ccnc4cc(C(=O)N5CCC5)sc34)cc2Cl)no1 [Example 52, 2-{4-[2-(Azetidine-1-carbonyl)-thieno[3,2-b]pyridin-7-yloxy]-2-chloro-phenyl}-N-(5-methyl-isoxazol-3-yl)-acetamide]
- Ki [1]: 0.001 to 0.01 µM
- inhibition at 0.05 µM [2]: > 10%
- IC50 [3]: > 0.01 µM

SMILES: Cc1cc(NC(=O)Cc2ccc(Oc3ccnc4cc(C(=O)N5CCC5)sc34)cc2Cl)on1 [Example 53, 2-{4-[2-(Azetidine-1-carbonyl)-thieno[3,2-b]pyridin-7-yloxy]-2-chloro-phenyl}-N-(3-methyl-isoxazol-5-yl)-acetamide]
- Ki [1]: < 0.001 µM
- inhibition at 0.05 µM [2]: 0 to 5%
- IC50 [3]: 0.001 to 0.01 µM

SMILES: Cc1cc(NC(=O)Cc2ccc(Oc3ccnc4cc(C(=O)N5CCC5)sc34)cc2Cl)n[nH]1 [Example 55, 2-{4-[2-(Azetidine-1-carbonyl)-thieno[3,2-b]pyridin-7-yloxy]-2-chloro-phenyl}-N-(5-methyl-1H-pyrazol-3-yl)-acetamide]
- Ki [1]: < 0.001 µM
- inhibition at 0.05 µM [2]: 0 to 5%
- IC50 [3]: < 0.001 µM

SMILES: Cn1ccnc1-c1cc2nccc(Oc3ccc(CC(=O)Nc4ccccn4)c(Cl)c3)c2s1 [Example 60, 2-{2-Chloro-4-[2-(1-methyl-1H-imidazol-2-yl)-thieno[3,2-b]pyridin-7-yloxy]-phenyl}-N-pyridin-2-yl-acetamide]
- Ki [1]: 0.001 to 0.01 µM
- inhibition at 0.05 µM [2]: 0 to 5%
- IC50 [3]: > 0.01 µM

SMILES: O=C(Cc1ccc(Oc2ccnc3cc(C(=O)N4CC[C@@H](O)C4)sc23)cc1Cl)Nc1ccccn1 [Example 61, 2-{2-Chloro-4-[2-((R)-3-hydroxy-pyrrolidine-1-carbonyl)-thieno[3,2-b]pyridin-7-yloxy]-phenyl}-N-pyridin-2-yl-acetamide]
- Ki [1]: 0.001 to 0.01 µM
- inhibition at 0.05 µM [2]: 0 to 5%
- IC50 [3]: > 0.01 µM

SMILES: CO[C@@H]1CCN(C(=O)c2cc3nccc(Oc4ccc(CC(=O)Nc5ccccn5)c(Cl)c4)c3s2)C1 [Example 62, 2-{2-Chloro-4-[2-((R)-3-methoxy-pyrrolidine-1-carbonyl)-thieno[3,2-b]pyridin-7-yloxy]-phenyl}-N-pyridin-2-yl-acetamide]
- Ki [1]: 0.001 to 0.01 µM
- inhibition at 0.05 µM [2]: 0 to 5%
- IC50 [3]: > 0.01 µM

SMILES: C=C(C(=O)NC)c1ccc(Oc2ccnc3cc(C(=O)N4CC[C@@H](O)C4)sc23)cc1 [Example 66, 2-{4-[2-((R)-3-Hydroxy-pyrrolidine-1-carbonyl)-thieno[3,2-b]pyridin-7-yloxy]-phenyl}-N-methyl-acrylamide]
- Ki [1]: > 0.01 µM
- inhibition at 0.05 µM [2]: 0 to 5%
- IC50 [3]: > 0.01 µM

SMILES: CNC(=O)Cc1ccc(Oc2ccnc3cc(C(=O)N4CC[C@@H](O)C4)sc23)cc1 [Example 69, 2-{4-[2-((R)-3-Hydroxy-pyrrolidine-1-carbonyl)-thieno[3,2-b]pyridin-7-yloxy]-phenyl}-N-methyl-acetamide]
- Ki [1]: > 0.01 µM
- inhibition at 0.05 µM [2]: 0 to 5%
- IC50 [3]: > 0.01 µM

SMILES: CNC(=O)C(O)c1ccc(Oc2ccnc3cc(C(=O)N4CCC4)sc23)cc1 (stereo not drawn) [Example 74, 2-{4-[2-(Azetidine-1-carbonyl)-thieno[3,2-b]pyridin-7-yloxy]-phenyl}-2-hydroxy-N-methyl-acetamide]
- Ki [1]: 0.001 to 0.01 µM
- inhibition at 0.05 µM [2]: 0 to 5%
- IC50 [3]: > 0.01 µM

SMILES: CNC(=O)C(O)c1ccc(Oc2ccnc3cc(C(=O)N4CC[C@@H](O)C4)sc23)cc1 (stereo partly drawn) [Example 76, 2-Hydroxy-2-{4-[2-((R)-3-hydroxy-pyrrolidine-1-carbonyl)-thieno[3,2-b]pyridin-7-yloxy]-phenyl}-N-methyl-acetamide]
- Ki [1]: 0.001 to 0.01 µM
- inhibition at 0.05 µM [2]: 0 to 5%
- IC50 [3]: > 0.01 µM

SMILES: CCCCNC(=O)Oc1ccc(Oc2ccnc3cc(C(=O)N4CCC4)sc23)cc1 [Example 86, butyl-carbamic acid 4-[2-(azetidine-1-carbonyl)-thieno[3,2-b]pyridin-7-yloxy]-phenyl ester]
- Ki [1]: 0.001 to 0.01 µM
- inhibition at 0.05 µM [2]: 0 to 5%
- IC50 [3]: < 0.001 µM

SMILES: COc1ccc2c(Oc3ccc(CC(=O)Nc4ccc(Cl)cn4)cc3)ccnc2c1 [Example 87, N-(5-Chloro-pyridin-2-yl)-2-[4-(7-methoxy-quinolin-4-yloxy)-phenyl]-acetamide]
- Ki [1]: 0.001 to 0.01 µM
- inhibition at 0.05 µM [2]: 0 to 5%
- IC50 [3]: > 0.01 µM
